The results in this text go back to patent US10703756B2, “Pyrrolo[2,3-D]pyrimidinyl, pyrrolo[2,3-B]pyrazinyl, pyrrolo[2,3-B]pyridinyl acrylamides and epoxides thereof” (Pfizer Inc., priority 2015, dated 2020).

Assay [1] has as its target T1, JAK3 enzyme (Homo sapiens, UniProt P52333).
T1 sequence (P52333 1-1124): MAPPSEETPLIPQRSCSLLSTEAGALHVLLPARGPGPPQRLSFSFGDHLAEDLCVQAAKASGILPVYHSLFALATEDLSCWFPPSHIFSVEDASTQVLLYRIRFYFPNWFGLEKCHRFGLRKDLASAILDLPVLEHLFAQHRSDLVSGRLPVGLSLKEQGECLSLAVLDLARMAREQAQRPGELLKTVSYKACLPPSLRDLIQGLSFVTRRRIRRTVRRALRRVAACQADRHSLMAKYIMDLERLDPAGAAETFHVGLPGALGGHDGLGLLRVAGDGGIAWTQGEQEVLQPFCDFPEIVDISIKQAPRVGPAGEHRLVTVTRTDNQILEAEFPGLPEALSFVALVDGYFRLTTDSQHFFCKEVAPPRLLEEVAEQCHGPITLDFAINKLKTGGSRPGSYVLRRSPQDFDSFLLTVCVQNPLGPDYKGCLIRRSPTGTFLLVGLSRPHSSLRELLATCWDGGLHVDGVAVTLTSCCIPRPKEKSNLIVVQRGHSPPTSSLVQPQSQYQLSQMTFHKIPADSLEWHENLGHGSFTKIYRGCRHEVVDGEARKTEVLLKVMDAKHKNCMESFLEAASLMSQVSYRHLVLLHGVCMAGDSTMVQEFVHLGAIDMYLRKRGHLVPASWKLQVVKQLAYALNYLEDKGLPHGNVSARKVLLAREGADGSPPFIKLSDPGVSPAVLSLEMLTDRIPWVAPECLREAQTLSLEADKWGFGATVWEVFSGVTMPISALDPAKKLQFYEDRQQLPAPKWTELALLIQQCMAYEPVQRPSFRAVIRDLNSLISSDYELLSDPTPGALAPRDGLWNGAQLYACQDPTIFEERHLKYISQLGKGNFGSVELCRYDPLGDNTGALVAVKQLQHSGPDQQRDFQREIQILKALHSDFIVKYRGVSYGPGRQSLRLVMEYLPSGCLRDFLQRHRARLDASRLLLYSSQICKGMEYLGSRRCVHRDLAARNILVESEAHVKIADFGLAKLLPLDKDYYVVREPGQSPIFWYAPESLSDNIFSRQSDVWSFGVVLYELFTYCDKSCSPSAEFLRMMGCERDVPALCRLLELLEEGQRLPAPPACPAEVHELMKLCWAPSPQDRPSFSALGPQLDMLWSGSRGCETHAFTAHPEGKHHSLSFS
Briefly: JAK Caliper Enzyme Assay at 1 mM ATP. Type of assay: biochemical. The essentials:
(§1)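 First, compound stocks in DMSO were serially diluted half-log over 11 points, starting at 600 μM. Next, reactions ran with batch-optimized enzyme and timing targeting 20%-30% phosphorylation. Finally, wells were sampled and product separated from substrate peptide electrophoretically.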

The target in assay [2] is T1, JAK3 enzyme. Description: JAK Caliper Enzyme Assay at 4 μM ATP. Type of assay: biochemical. The essentials: as §1

A word on the IC50: it is the concentration at which inhibition is half-maximal. Higher therefore signals weaker potency in that assay.

For the compound `C=CC(=O)N1CCC(Oc2cnc3[nH]cc(C(=O)NCC4(O)CCC(F)(F)CC4)c3n2)CC1` [Example 207, 2-[(1-acryloylpiperidin-4-yl)oxy]-N-[(4,4-difluoro-1-hydroxycyclohexyl)methyl]-5H-pyrrolo[2,3-b]pyrazine-7-carboxamide], the IC50 at JAK3 enzyme [1] amounted to 538 nM; against JAK3 enzyme [2] it was 4.07 nM.

`C=CC(=O)N1CCC(Oc2cnc3[nH]cc(C(=O)NC[C@@]4(O)CCCC[C@H]4F)c3n2)CC1` [Example 208, 2-[(1-acryloylpiperidin-4-yl)oxy]-N-{[(2R)-2-fluoro-1-hydroxycyclohexyl]methyl}-5H-pyrrolo[2,3-b]pyrazine-7-carboxamide]: the IC50 against JAK3 enzyme [1] is 734 nM; against JAK3 enzyme [2] it was 6.99 nM.

`C=CC(=O)N1CCC(Oc2cnc3[nH]cc(C(=O)N[C@@H]4C[C@H]4C(F)(F)F)c3n2)CC1` [Example 216, 2-[(1-acryloylpiperidin-4-yl)oxy]-N-[(1R,2R)-2-(trifluoromethyl)cyclopropyl]-5H-pyrrolo[2,3-b]pyrazine-7-carboxamide]: the IC50 against JAK3 enzyme [1] is 463 nM; on JAK3 enzyme [2], 3.27 nM.

On to `C=CC(=O)N1CCC(Oc2cnc3[nH]cc(C(=O)NCC(C)(C)C)c3n2)CC1` [Example 221, 2-[(1-acryloylpiperidin-4-yl)oxy]-N-(2,2-dimethylpropyl)-5H-pyrrolo[2,3-b]pyrazine-7-carboxamide], for which the IC50 on JAK3 enzyme [1] was found to be 713 nM; against JAK3 enzyme [2], 4.4 nM.

For the compound `C=CC(=O)N1C[C@H](Nc2cnc3[nH]cc(C(=O)NCCOC)c3n2)[C@@](C)(C#N)C1` [Example 232, 2-{[(3R,4S)-1-acryloyl-4-cyano-4-methylpyrrolidin-3-yl]amino}-N-(2-methoxyethyl)-5H-pyrrolo[2,3-b]pyrazine-7-carboxamide], the IC50 at JAK3 enzyme [1] is 606 nM; against JAK3 enzyme [2], 2.5 nM.

Turning to `C=CC(=O)N1C[C@H](Nc2cnc3[nH]cc(C(=O)NCCOC)c3n2)C[C@H]1COCC` [Example 233, 2-{[(3R,5S)-1-acryloyl-5-(ethoxymethyl)pyrrolidin-3-yl]amino}-N-(2-methoxyethyl)-5H-pyrrolo[2,3-b]pyrazine-7-carboxamide], the IC50 against JAK3 enzyme [1] came to 1100 nM; on JAK3 enzyme [2], 6.79 nM.

With `C=CC(=O)N1CC[C@@H](Nc2cnc3[nH]cc(C(=O)NCC)c3n2)C1` [Example 234, 2-{[(3R)-1-acryloylpyrrolidin-3-yl]amino}-N-ethyl-5H-pyrrolo[2,3-b]pyrazine-7-carboxamide], the IC50 came out at 2270 nM at JAK3 enzyme [1] and 17.9 nM against JAK3 enzyme [2].

Take `C=CC(=O)N1CC(Nc2cnc3[nH]cc(C(=O)NCC(C)C)c3n2)C2(CC2)C1` (stereo not shown) [Example 236, 2-[(5-acryloyl-5-azaspiro[2.4]hept-7-yl)amino]-N-(2-methylpropyl)-5H-pyrrolo[2,3-b]pyrazine-7-carboxamide]: the IC50 on JAK3 enzyme [1] is 6550 nM; against JAK3 enzyme [2], 45.1 nM.

`C=CC(=O)N1C[C@H](C2CC2)[C@H](Nc2cnc3[nH]cc(C(=O)NCC)c3n2)C1` [Example 238, 2-{[(3S,4S)-1-acryloyl-4-cyclopropylpyrrolidin-3-yl]amino}-N-ethyl-5H-pyrrolo[2,3-b]pyrazine-7-carboxamide]: the IC50 on JAK3 enzyme [1] worked out at 1360 nM; against JAK3 enzyme [2], 9.48 nM.

Take `C=CC(=O)N1C[C@H](Nc2cnc3[nH]cc(C(=O)NCC)c3n2)C[C@H]1COC` [Example 239, 2-{[(3R,5S)-1-acryloyl-5-(methoxymethyl)pyrrolidin-3-yl]amino}-N-ethyl-5H-pyrrolo[2,3-b]pyrazine-7-carboxamide]: the figures for the IC50 against JAK3 enzyme [1] and on JAK3 enzyme [2] were 757 nM and 3.78 nM, respectively.

With `C=CC(=O)N1C[C@H](Nc2cnc3[nH]cc(C(=O)NCC)c3n2)[C@@](C)(C#N)C1` [Example 240, 2-{[(3R,4S)-1-acryloyl-4-cyano-4-methylpyrrolidin-3-yl]amino}-N-ethyl-5H-pyrrolo[2,3-b]pyrazine-7-carboxamide], the values for the IC50 against JAK3 enzyme [1] and at JAK3 enzyme [2] were 4060 nM and 10.9 nM, respectively.

On to `C=CC(=O)N1C[C@H](CC)[C@H](Nc2cnc3[nH]cc(C(=O)NCC)c3n2)C1` [Example 241, 2-{[(3S,4S)-1-acryloyl-4-ethylpyrrolidin-3-yl]amino}-N-ethyl-5H-pyrrolo[2,3-b]pyrazine-7-carboxamide], for which the IC50 amounted to 857 nM at JAK3 enzyme [1] and 3.79 nM against JAK3 enzyme [2].

Turning to `C=CC(=O)N1CC(Nc2cnc3[nH]cc(C(=O)NCC(F)(F)F)c3n2)C2(CC2)C1` (stereo not shown) [Example 242, 2-[(5-acryloyl-5-azaspiro[2.4]hept-7-yl)amino]-N-(2,2,2-trifluoroethyl)-5H-pyrrolo[2,3-b]pyrazine-7-carboxamide], the values for the IC50 on JAK3 enzyme [1] and at JAK3 enzyme [2] were over 10000 nM and 62.1 nM, respectively.

On to `C=CC(=O)N1CC(Nc2cnc3[nH]cc(C(=O)NCC)c3n2)C2(CC2)C1` (stereo not shown) [Example 244, 2-[(5-acryloyl-5-azaspiro[2.4]hept-7-yl)amino]-N-ethyl-5H-pyrrolo[2,3-b]pyrazine-7-carboxamide], for which the values for the concentration for half-maximal inhibition (IC50) on JAK3 enzyme [1] and against JAK3 enzyme [2] were over 10000 nM and 82.3 nM, respectively.

On to `C=CC(=O)N1C[C@H](Nc2cnc3[nH]cc(C(=O)NCCOC)c3n2)C[C@@H]1COC` [Example 246, 2-{[(3R,5R)-1-acryloyl-5-(methoxymethyl)pyrrolidin-3-yl]amino}-N-(2-methoxyethyl)-5H-pyrrolo[2,3-b]pyrazine-7-carboxamide], for which the figures for the IC50 against JAK3 enzyme [1] and against JAK3 enzyme [2] were 1110 nM and 7.79 nM, respectively.

Consider `C=CC(=O)N1C[C@H](C2CC2)[C@H](Nc2cnc3[nH]cc(C(=O)NCCOC)c3n2)C1` [Example 247, 2-{[(3S,4S)-1-acryloyl-4-cyclopropylpyrrolidin-3-yl]amino}-N-(2-methoxyethyl)-5H-pyrrolo[2,3-b]pyrazine-7-carboxamide], for which the IC50 at JAK3 enzyme [1] stood at 829 nM; on JAK3 enzyme [2] it was 3.34 nM.

In the case of `C=CC(=O)N1CC(Nc2cnc3[nH]cc(C(=O)NCCCC(F)(F)F)c3n2)C2(CC2)C1` (stereo not shown) [Example 249, 2-[(5-acryloyl-5-azaspiro[2.4]hept-7-yl)amino]-N-(4,4,4-trifluorobulyl)-5H-pyrrolo[2,3-b]pyrazine-7-carboxamide], the concentration for half-maximal inhibition (IC50) was over 10000 nM against JAK3 enzyme [1] and 75.3 nM against JAK3 enzyme [2].

For `C=CC(=O)N1C[C@H](Nc2cnc3[nH]cc(C(=O)NCC)c3n2)C[C@H]1COCC` [Example 250, 2-{[(3R,5S)-1-acryloyl-5-(ethoxymethyl)pyrrolidin-3-yl]amino}-N-ethyl-5H-pyrrolo[2,3-b]pyrazine-7-carboxamide], the IC50 on JAK3 enzyme [1] was 798 nM; at JAK3 enzyme [2], 4.31 nM.

For the compound `C=CC(=O)N1C[C@H](Nc2cnc3[nH]cc(C(=O)NCC)c3n2)[C@](C)(C#N)C1` [Example 251, 2-{[(3R,4R)-1-acryloyl-4-cyano-4-methylpyrrolidin-3-yl]amino}-N-ethyl-5H-pyrrolo[2,3-b]pyrazine-7-carboxamide], the IC50 turned out to be 1320 nM against JAK3 enzyme [1] and 5.12 nM at JAK3 enzyme [2].

Regarding `C=CC(=O)N1CC(Nc2cnc3[nH]cc(C(=O)NCCC(F)(F)F)c3n2)C2(CC2)C1` (stereo not shown) [Example 252, 2-[(5-acryloyl-5-azaspiro[2.4]hept-7-yl)amino]-N-(3,3,3-trifluoropropyl)-5H-pyrrolo[2,3-b]pyrazine-7-carboxamide], the 50% inhibitory concentration (IC50) on JAK3 enzyme [1] was over 10000 nM; at JAK3 enzyme [2], 110 nM.

Consider `C=CC(=O)N1C[C@@H](CC)[C@@H](Nc2cnc3[nH]cc(C(=O)NCCOC)c3n2)C1` [Example 257, 2-{[(3R,4R)-1-acryloyl-4-ethylpyrrolidin-3-yl]amino}-N-(2-methoxyethyl)-5H-pyrrolo[2,3-b]pyrazine-7-carboxamide], for which the values for the IC50 against JAK3 enzyme [1] and against JAK3 enzyme [2] were 6460 nM and 55.3 nM, respectively.

As to `C=CC(=O)N1C[C@H](Nc2cnc3[nH]cc(C(=O)NCCOC)c3n2)C[C@H]1COC` [Example 258, 2-{[(3R,5S)-1-acryloyl-5-(methoxymethyl)pyrrolidin-3-yl]amino}-N-(2-methoxyethyl)-5H-pyrrolo[2,3-b]pyrazine-7-carboxamide], the IC50 at JAK3 enzyme [1] came out at 1050 nM; against JAK3 enzyme [2] it was 6.23 nM.

In the case of `C=CC(=O)N1C[C@H](Nc2cnc3[nH]cc(C(=O)NCCOC)c3n2)[C@H](C2CC2)C1` [Example 259, 2-{[(3R,4R)-1-acryloyl-4-cyclopropylpyrrolidin-3-yl]amino}-N-(2-methoxyethyl)-5H-pyrrolo[2,3-b]pyrazine-7-carboxamide], the IC50 is over 10000 nM against JAK3 enzyme [1] and 180 nM on JAK3 enzyme [2].
